Changes are numbered by the printed parent chain. Read-outs that look alike come from different tables or passages of the source. Where no end group is shown, it is not given here.
Assays:
VPS29 = target: T1, VPS29 (Homo sapiens, UniProt Q9UBQ0); test: Fluorescence anisotropy binding of 5-FAM SNX17CT-18 to VPS29; conditions: 0.1 μM 5-FAM peptide, pH 7.5, 300 mM NaCl, 25 °C, two technical replicates (Fig. 3D)
T1 construct: GST (N, cleaved yes); made in house; host or cells: Escherichia coli BL21(DE3)
Protocol: (§1) Lyophilized peptides were resuspended in 100 mM Hepes pH 8.0 at 5 mg/ml and further diluted in the assay buffer (50 mM Hepes pH 7.5, 300 mM NaCl, and 1 mM DTT). […] The mixture was incubated at 25 °C for at least 30 min and then transferred to 96 Flat Black plates. Fluorescence anisotropy was measured at 25 °C using Spark 10M Plate Reader (Tecan) with a 485/20 excitation filter and a 535/35 emission filter. The dissociation constants were calculated in GraphPad Prism by nonlinear regression fitting of the experimental data to a one-site total binding model. The final KD measurement is the mean of at least two independent experiments.

MBP-SNX17 WT = target: T2, MBP-SNX17 WT (Homo sapiens, UniProt Q15036); test: Fluorescence anisotropy binding of 5-FAM peptides to MBP-SNX17 wild-type
T2 construct: M protein marker, R Retriever complex, FL full-length; His (N, cleaved yes); made in house; host or cells: Escherichia coli BL21(DE3)
T2 sequence (Q15036 1-470): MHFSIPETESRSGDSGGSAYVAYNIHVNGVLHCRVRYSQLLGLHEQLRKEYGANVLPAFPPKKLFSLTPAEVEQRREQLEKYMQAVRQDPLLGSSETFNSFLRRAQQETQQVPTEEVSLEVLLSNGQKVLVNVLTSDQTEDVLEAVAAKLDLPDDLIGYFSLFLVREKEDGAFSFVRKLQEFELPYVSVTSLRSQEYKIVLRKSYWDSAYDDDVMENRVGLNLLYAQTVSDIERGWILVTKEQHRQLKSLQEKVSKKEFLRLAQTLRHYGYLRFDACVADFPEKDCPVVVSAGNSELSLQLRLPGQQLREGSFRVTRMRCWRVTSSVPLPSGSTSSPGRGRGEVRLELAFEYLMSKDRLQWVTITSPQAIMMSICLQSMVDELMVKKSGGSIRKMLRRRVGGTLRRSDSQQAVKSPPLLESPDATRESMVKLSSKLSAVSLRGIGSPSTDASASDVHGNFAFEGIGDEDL
Protocol: as §1

VPS26C = target: T3, VPS26C (Homo sapiens, UniProt O14972); test: Fluorescence anisotropy binding of 5-FAM SNX17CT-18 to VPS26C; conditions: 0.1 μM 5-FAM peptide, pH 7.5, 300 mM NaCl, 25 °C, two technical replicates (Fig. 3D)
T3 construct: His-Sumo3 (N, cleaved yes); made in house; host or cells: Escherichia coli BL21(DE3)
Protocol: as §1

VPS35L-VPS29 = target: T4, VPS35L-VPS29 (Homo sapiens, UniProt Q7Z3J2+Q9UBQ0); test: Fluorescence anisotropy binding of 5-FAM SNX17CT-18 to VPS35L-VPS29; conditions: 0.1 μM 5-FAM peptide, pH 7.5, 300 mM NaCl, 25 °C, two technical replicates (Fig. 3D)
T4 construct: His (N, cleaved yes); made in house; host or cells: High Five insect cells (baculovirus)
Protocol: as §1

[1] = target: T5, SNX17FERM-CT (amino acids 109-470) (Homo sapiens, UniProt Q15036); test: Fluorescence anisotropy binding of 5-FAM cargo peptides to SNX17FERM-CT; conditions: read-out: KD SNX17FERM-CT
T5 construct: His-Sumo3 (N, cleaved yes); made in house; host or cells: Escherichia coli BL21(DE3)
T5 sequence (Q15036 109-470): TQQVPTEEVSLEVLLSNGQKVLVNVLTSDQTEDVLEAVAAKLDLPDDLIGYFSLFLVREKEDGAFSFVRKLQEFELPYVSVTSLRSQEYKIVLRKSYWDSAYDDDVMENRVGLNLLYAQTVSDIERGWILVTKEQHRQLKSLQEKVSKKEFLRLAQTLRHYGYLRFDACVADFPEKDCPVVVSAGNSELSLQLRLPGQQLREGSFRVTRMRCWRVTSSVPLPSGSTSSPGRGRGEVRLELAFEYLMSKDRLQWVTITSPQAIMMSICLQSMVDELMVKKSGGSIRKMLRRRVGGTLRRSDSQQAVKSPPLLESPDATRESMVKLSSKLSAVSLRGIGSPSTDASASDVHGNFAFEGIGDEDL
Protocol: as §1

MBP-SNX17 L470G = target: T6, MBP-SNX17 L470G (Homo sapiens, UniProt Q15036, L470G); test: Fluorescence anisotropy binding of 5-FAM cargo peptides to MBP-SNX17 L470G
T6 construct: M protein marker, R Retriever complex, FL full-length; His (N, cleaved yes); made in house; host or cells: Escherichia coli BL21(DE3)
T6 sequence (Q15036 1-470 L470G): T2 sequence (Q15036 1-470) with L470G
Protocol: as §1, with “The peptides used for binding assays were synthesized with an N-terminal 5-Carboxyfluorescein (FAM) and HPLC purified (≥95%) by GenScript. Lyophilized” for “Lyophilized”

MBP = MBP (Escherichia coli, UniProt P0AEX9); test: Fluorescence anisotropy, MBP negative control; type: binding
Protocol: as §1

MBP-SNX17V380D = target: T7, MBP-SNX17V380D (Homo sapiens, UniProt Q15036, V380D); test: Fluorescence anisotropy binding of 5-FAM peptides to MBP-SNX17 V380D
T7 construct: M protein marker, R Retriever complex, FL full-length; His (N, cleaved yes); made in house; host or cells: Escherichia coli BL21(DE3)
T7 sequence (Q15036 1-470 V380D): T2 sequence (Q15036 1-470) with V380D
Protocol: as §1

MBP-SNX17W321A = target: T8, MBP-SNX17W321A (Homo sapiens, UniProt Q15036, W321A); test: Fluorescence anisotropy binding of 5-FAM peptides to MBP-SNX17 W321A
T8 construct: M protein marker, R Retriever complex, FL full-length; His (N, cleaved yes); made in house; host or cells: Escherichia coli BL21(DE3)
T8 sequence (Q15036 1-470 W321A): T2 sequence (Q15036 1-470) with W321A
Protocol: as §1

Question: Which “KD VPS29” value (VPS29) does the source give for `CC[C@H](C)[C@H](NC(=O)CNC(=O)[C@H](CCC(=O)O)NC(=O)[C@H](Cc1ccccc1)NC(=O)[C@H](C)NC(=O)[C@H](Cc1ccccc1)NC(=O)[C@H](CC(N)=O)NC(=O)CNC(=O)[C@H](Cc1c[nH]cn1)NC(=O)[C@@H](NC(=O)[C@H](CC(=O)O)NC(=O)[C@H](CO)NC(=O)[C@H](C)NC(=O)c1ccc2c(c1)C(=O)OC21c2ccc(O)cc2Oc2cc(O)ccc21)C(C)C)C(=O)NCC(=O)N[C@@H](CC(=O)O)C(=O)N[C@@H](CCC(=O)O)C(=O)N[C@@H](CC(=O)O)C(=O)N[C@@H](CC(C)C)C(=O)O` [SNX17CT-18] here?
Answer: Its value is “no discernible binding”.

Question: What about the “KD MBP-SNX17 WT” value (MBP-SNX17 WT; fluorescence anisotropy, 0.1 μM 5-FAM peptide, pH 7.5, 300 mM NaCl, 25 °C, one-site total binding, Bmax fixed at 240, mean ± SD of three biological replicates (Fig. 4E)) of the same compound?
Answer: The value was “binds weakly”.

Question: What about the “KD VPS26C” value (VPS26C) of the same compound?
Answer: Its value is “no discernible binding”.

Question: What about the “KD VPS35L-VPS29” value (VPS35L-VPS29) of the same compound?
Answer: The value was “weak interaction”.

Question: With KWDTGENPIYKSAV [ITGB1 P-14-mer] as the compound, how does the Kd [1] read?
Answer: The Kd was 72.5 µM.

Question: For MNVEIGNPTYKMYE [LRP1 14-mer], which Kd (MBP-SNX17 L470G) is on record?
Answer: Its Kd is 2.8 ± 0.2 µM.

Question: And the Kd (MBP; 0.1 μM 5-FAM peptide, pH 7.5, 300 mM NaCl, 25 °C (Fig. EV3B), read-out: KD MBP (negative control))?
Answer: The Kd was over 32 µM.

Question: And the Kd (MBP; 5-FAM peptide, replicate Y1 (Fig. 4E source data), read-out: KD MBP)?
Answer: Its Kd is over 32 µM.

Question: And the Kd (MBP; 5-FAM peptide, replicate Y2 (Fig. 4E source data), read-out: KD MBP)?
Answer: Its Kd is over 32 µM.

Question: What about the Kd (MBP; 5-FAM peptide, replicate Y3 (Fig. 4E source data), read-out: KD MBP) of the same compound?
Answer: The Kd was over 32 µM.

Question: What about the Kd (MBP-SNX17V380D; 0.1 μM 5-FAM peptide, pH 7.5, 300 mM NaCl, 25 °C, one-site total binding, Bmax fixed at 240, three biological replicates (Fig. 4E)) of the same compound?
Answer: The Kd was over 32 µM.

Question: And the Kd (MBP-SNX17V380D; 5-FAM peptide, Bmax fixed at 240, replicate Y1 (Fig. 4E source data), read-out: KD MBP-SNX17V380D)?
Answer: Its Kd is over 32 µM.

Question: What about the Kd (MBP-SNX17V380D; 5-FAM peptide, Bmax fixed at 240, replicate Y2 (Fig. 4E source data), read-out: KD MBP-SNX17V380D) of the same compound?
Answer: Its Kd is over 32 µM.

Question: What about the Kd (MBP-SNX17V380D; 5-FAM peptide, Bmax fixed at 240, replicate Y3 (Fig. 4E source data), read-out: KD MBP-SNX17V380D) of the same compound?
Answer: Its Kd is over 32 µM.

Question: What about the Kd (MBP-SNX17 WT) of the same compound?
Answer: Its Kd is 3 µM.

Question: What about the Kd (MBP-SNX17W321A) of the same compound?
Answer: The Kd was over 32 µM.

Question: And the Kd (MBP-SNX17W321A; read-out: KD MBP-SNX17W321A, fluorescence anisotropy, 5-FAM peptide, Bmax fixed at 240, replicate Y2 (Fig. 4E source data))?
Answer: The Kd was over 32 µM.

Question: And the Kd [1]?
Answer: Its Kd is 2.23 µM.

Question: How did the Kd [1] turn out when QQNGYENPTYKFFE [APP 14-mer] was run?
Answer: Its Kd is 19.1 µM.

Source: paper PMC11772769, “Selective cargo and membrane recognition by SNX17 regulates its interaction with Retriever” (EMBO Reports, 2024)
